Assay results taken from ChEMBL document CHEMBL4507329, “Data for DCP probe BTZO-1” (2021).

Tests used:
[1] = molecular target: Tyrosine-protein kinase ABL1 (Homo sapiens) (UniProt P00519); settings: Compound concentration 1000.0 nM
[2] = molecular target: Activin receptor type-2A (Homo sapiens) (UniProt P27037); settings: Compound concentration 1000.0 nM
[3] = system: ALK tyrosine kinase receptor (Homo sapiens), Q9UM73 [C1156Y]; settings: Compound concentration 1000.0 nM
[4] = molecular target: 5'-AMP-activated protein kinase catalytic subunit alpha-2 (Homo sapiens) (UniProt P54646); settings: Compound concentration 1000.0 nM
[5] = molecular target: Mitogen-activated protein kinase kinase kinase 5 (Homo sapiens) (UniProt Q99683); settings: Compound concentration 1000.0 nM
[6] = molecular target: Cytoplasmic tyrosine-protein kinase BMX (Homo sapiens) (UniProt P51813); settings: Compound concentration 1000.0 nM
[7] = molecular target: Serine/threonine-protein kinase B-raf (Homo sapiens) (UniProt P15056); settings: Compound concentration 1000.0 nM
[8] = molecular target: Tyrosine-protein kinase BTK (Homo sapiens) (UniProt Q06187); settings: Compound concentration 1000.0 nM
[9] = molecular target: Calcium/calmodulin-dependent protein kinase type 1G (Homo sapiens) (UniProt Q96NX5); settings: Compound concentration 1000.0 nM
[10] = molecular target: Cyclin-dependent kinase 13 (Homo sapiens) (UniProt Q14004); settings: Compound concentration 1000.0 nM
[11] = molecular target: Cyclin-dependent kinase 19 (Homo sapiens) (UniProt Q9BWU1); settings: Compound concentration 1000.0 nM
[12] = molecular target: Cyclin-dependent kinase 7 (Homo sapiens) (UniProt P50613); settings: Compound concentration 1000.0 nM
[13] = molecular target: Cyclin-dependent kinase-like 5 (Homo sapiens) (UniProt O76039); settings: Compound concentration 1000.0 nM
[14] = molecular target: Serine/threonine-protein kinase Chk2 (Homo sapiens) (UniProt O96017); settings: Compound concentration 1000.0 nM
[15] = molecular target: Casein kinase I isoform gamma-1 (Homo sapiens) (UniProt Q9HCP0); settings: Compound concentration 1000.0 nM
[16] = molecular target: Casein kinase I isoform gamma-3 (Homo sapiens) (UniProt Q9Y6M4); settings: Compound concentration 1000.0 nM
Casein kinase I isoform gamma-3 (Homo sapiens), sequence (Q9Y6M4 whole entry, looked up, canonical isoform): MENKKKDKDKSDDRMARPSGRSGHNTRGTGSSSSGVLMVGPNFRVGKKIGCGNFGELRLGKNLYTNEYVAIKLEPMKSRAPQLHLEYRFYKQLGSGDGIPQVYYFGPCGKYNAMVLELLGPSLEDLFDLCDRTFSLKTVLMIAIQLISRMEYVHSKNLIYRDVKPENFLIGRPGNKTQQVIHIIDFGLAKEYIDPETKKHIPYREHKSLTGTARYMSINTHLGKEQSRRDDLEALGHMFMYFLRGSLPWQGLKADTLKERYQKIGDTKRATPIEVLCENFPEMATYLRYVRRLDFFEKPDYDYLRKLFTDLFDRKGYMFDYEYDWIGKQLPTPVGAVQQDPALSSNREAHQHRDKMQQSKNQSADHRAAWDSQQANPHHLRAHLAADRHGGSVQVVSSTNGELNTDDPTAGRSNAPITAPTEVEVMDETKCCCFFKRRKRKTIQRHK

[17] = molecular target: Megakaryocyte-associated tyrosine-protein kinase (Homo sapiens) (UniProt P42679); settings: Compound concentration 1000.0 nM
Megakaryocyte-associated tyrosine-protein kinase (Homo sapiens), sequence (P42679 whole entry): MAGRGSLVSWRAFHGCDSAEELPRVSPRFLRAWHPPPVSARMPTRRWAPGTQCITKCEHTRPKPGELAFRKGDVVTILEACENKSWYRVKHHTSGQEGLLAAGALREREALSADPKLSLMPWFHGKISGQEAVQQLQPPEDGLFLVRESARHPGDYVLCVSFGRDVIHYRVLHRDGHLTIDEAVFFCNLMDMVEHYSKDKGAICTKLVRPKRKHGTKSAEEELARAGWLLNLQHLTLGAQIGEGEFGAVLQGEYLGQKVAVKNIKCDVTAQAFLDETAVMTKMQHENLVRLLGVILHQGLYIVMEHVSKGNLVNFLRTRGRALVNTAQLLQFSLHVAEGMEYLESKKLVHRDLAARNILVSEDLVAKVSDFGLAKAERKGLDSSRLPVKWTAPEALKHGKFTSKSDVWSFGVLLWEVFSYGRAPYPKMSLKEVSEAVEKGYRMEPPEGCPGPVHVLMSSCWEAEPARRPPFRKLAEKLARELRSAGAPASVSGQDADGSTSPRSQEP

[18] = system: Epidermal growth factor receptor (Homo sapiens), P00533 [G719C]; settings: Compound concentration 1000.0 nM
[19] = molecular target: Receptor tyrosine-protein kinase erbB-3 (Homo sapiens) (UniProt P21860); settings: Compound concentration 1000.0 nM
[20] = molecular target: Receptor tyrosine-protein kinase erbB-4 (Homo sapiens) (UniProt Q15303); settings: Compound concentration 1000.0 nM
[21] = molecular target: Mitogen-activated protein kinase 3 (Homo sapiens) (UniProt P27361); settings: Compound concentration 1000.0 nM
[22] = molecular target: Mitogen-activated protein kinase 15 (Homo sapiens) (UniProt Q8TD08); settings: Compound concentration 1000.0 nM
[23] = molecular target: Tyrosine-protein kinase Fes/Fps (Homo sapiens) (UniProt P07332); settings: Compound concentration 1000.0 nM
Tyrosine-protein kinase Fes/Fps (Homo sapiens), sequence (P07332 whole entry): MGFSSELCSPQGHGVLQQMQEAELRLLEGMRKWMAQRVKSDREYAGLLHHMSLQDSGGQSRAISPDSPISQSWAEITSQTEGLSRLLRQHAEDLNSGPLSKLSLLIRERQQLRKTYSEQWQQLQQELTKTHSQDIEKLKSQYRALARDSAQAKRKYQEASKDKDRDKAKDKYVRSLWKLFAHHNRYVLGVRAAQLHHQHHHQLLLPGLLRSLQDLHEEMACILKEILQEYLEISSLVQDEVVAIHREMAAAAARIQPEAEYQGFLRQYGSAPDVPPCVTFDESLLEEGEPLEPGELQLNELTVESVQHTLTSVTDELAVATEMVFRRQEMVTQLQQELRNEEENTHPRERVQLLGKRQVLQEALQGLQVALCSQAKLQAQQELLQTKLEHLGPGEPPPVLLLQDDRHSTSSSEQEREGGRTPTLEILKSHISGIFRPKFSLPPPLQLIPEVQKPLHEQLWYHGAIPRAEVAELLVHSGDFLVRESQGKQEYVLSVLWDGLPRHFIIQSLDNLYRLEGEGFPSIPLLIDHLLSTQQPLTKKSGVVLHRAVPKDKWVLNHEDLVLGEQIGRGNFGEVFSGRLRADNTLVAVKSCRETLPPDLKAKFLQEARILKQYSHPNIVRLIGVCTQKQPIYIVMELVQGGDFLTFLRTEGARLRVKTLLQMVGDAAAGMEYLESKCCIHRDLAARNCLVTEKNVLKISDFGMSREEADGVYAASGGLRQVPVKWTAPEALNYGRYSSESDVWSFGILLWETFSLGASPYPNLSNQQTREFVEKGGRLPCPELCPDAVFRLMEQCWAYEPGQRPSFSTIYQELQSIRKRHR

[24] = molecular target: Glycogen synthase kinase-3 beta (Homo sapiens) (UniProt P49841); settings: Compound concentration 1000.0 nM
[25] = molecular target: Homeodomain-interacting protein kinase 1 (Homo sapiens) (UniProt Q86Z02); settings: Compound concentration 1000.0 nM
[26] = molecular target: Tyrosine-protein kinase JAK1 (Homo sapiens) (UniProt P23458); settings: Compound concentration 1000.0 nM
[27] = molecular target: Mast/stem cell growth factor receptor Kit (Homo sapiens) (UniProt P10721); settings: Compound concentration 1000.0 nM
Mast/stem cell growth factor receptor Kit (Homo sapiens), sequence (P10721 whole entry): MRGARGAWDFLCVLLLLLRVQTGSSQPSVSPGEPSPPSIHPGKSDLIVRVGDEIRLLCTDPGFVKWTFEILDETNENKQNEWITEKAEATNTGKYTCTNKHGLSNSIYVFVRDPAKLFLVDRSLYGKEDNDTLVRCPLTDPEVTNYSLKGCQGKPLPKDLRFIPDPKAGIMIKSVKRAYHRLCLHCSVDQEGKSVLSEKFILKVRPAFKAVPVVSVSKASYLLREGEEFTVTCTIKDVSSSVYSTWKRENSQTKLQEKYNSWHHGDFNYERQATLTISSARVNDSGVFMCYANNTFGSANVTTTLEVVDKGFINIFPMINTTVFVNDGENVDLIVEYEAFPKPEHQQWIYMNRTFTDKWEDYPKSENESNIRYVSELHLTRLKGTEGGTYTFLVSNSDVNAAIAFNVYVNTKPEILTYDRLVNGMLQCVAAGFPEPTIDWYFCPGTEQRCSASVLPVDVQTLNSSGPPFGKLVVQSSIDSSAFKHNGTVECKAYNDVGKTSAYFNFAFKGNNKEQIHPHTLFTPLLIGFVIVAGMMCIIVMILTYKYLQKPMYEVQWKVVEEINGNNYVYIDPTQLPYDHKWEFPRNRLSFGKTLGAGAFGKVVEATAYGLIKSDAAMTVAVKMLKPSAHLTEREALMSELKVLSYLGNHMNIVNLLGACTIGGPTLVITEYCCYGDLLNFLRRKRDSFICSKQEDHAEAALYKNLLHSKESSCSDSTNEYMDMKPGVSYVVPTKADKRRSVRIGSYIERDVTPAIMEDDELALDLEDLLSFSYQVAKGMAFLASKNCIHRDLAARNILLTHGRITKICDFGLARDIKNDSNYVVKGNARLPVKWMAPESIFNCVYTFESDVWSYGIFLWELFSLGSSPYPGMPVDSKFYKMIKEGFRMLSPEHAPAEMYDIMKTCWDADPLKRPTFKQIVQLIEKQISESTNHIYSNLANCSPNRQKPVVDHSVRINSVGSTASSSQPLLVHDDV

[28] = molecular target: Leucine-rich repeat serine/threonine-protein kinase 2 (Homo sapiens) (UniProt Q5S007); settings: Compound concentration 1000.0 nM
[29] = molecular target: Mitogen-activated protein kinase kinase kinase 2 (Homo sapiens) (UniProt Q9Y2U5); settings: Compound concentration 1000.0 nM
[30] = molecular target: Dual specificity mitogen-activated protein kinase kinase 3 (Homo sapiens) (UniProt P46734); settings: Compound concentration 1000.0 nM
[31] = molecular target: Mitogen-activated protein kinase kinase kinase 10 (Homo sapiens) (UniProt Q02779); settings: Compound concentration 1000.0 nM
[32] = molecular target: Serine/threonine-protein kinase MRCK beta (Homo sapiens) (UniProt Q9Y5S2); settings: Compound concentration 1000.0 nM
[33] = molecular target: Serine/threonine-protein kinase mTOR (Homo sapiens) (UniProt P42345); settings: Compound concentration 1000.0 nM
[34] = molecular target: Myosin light chain kinase, smooth muscle (Homo sapiens) (UniProt Q15746); settings: Compound concentration 1000.0 nM
[35] = molecular target: Cyclin-dependent kinase 18 (Homo sapiens) (UniProt Q07002); settings: Compound concentration 1000.0 nM
[36] = system: Phosphatidylinositol 4,5-bisphosphate 3-kinase catalytic subunit alpha isoform (Homo sapiens), P42336 [C420R]; settings: Compound concentration 1000.0 nM
Phosphatidylinositol 4,5-bisphosphate 3-kinase catalytic subunit alpha isoform (Homo sapiens), P42336 [C420R], sequence (P42336 whole entry C420R, canonical isoform): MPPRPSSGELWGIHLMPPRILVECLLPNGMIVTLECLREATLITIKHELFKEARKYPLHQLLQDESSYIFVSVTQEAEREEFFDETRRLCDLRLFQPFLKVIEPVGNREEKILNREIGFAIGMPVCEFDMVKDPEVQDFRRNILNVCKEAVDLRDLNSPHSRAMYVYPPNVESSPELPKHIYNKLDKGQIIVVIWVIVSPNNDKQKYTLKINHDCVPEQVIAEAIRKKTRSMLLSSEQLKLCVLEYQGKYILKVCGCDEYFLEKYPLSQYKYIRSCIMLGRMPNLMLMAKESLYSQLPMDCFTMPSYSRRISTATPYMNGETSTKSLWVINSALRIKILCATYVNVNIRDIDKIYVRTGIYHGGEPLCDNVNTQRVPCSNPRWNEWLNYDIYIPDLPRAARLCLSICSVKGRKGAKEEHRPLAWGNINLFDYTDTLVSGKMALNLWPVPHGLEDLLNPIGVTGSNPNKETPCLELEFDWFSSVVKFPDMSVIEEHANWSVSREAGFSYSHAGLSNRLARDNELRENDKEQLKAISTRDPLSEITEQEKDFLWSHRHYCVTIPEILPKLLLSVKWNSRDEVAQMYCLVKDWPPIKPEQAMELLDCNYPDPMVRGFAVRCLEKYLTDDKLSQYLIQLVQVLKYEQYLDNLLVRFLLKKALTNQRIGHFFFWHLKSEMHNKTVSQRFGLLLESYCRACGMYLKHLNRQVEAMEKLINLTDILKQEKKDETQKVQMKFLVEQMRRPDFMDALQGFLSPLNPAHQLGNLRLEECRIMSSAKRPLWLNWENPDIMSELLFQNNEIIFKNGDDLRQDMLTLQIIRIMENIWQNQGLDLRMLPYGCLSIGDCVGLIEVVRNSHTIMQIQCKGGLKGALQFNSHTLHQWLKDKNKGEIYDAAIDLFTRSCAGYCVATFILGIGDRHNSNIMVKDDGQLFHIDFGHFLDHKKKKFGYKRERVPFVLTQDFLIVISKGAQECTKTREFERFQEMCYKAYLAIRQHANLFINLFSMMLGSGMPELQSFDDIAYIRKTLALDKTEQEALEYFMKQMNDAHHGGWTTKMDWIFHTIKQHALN

[37] = molecular target: Serine/threonine-protein kinase pim-1 (Homo sapiens) (UniProt P11309); settings: Compound concentration 1000.0 nM
[38] = molecular target: Serine/threonine-protein kinase N2 (Homo sapiens) (UniProt Q16513); settings: Compound concentration 1000.0 nM
[39] = molecular target: Serine/threonine-protein kinase D2 (Homo sapiens) (UniProt Q9BZL6); settings: Compound concentration 1000.0 nM
[40] = molecular target: Tyrosine-protein kinase TXK (Homo sapiens) (UniProt P42681); settings: Compound concentration 1000.0 nM
[41] = molecular target: Serine/threonine-protein kinase WNK3 (Homo sapiens) (UniProt Q9BYP7); settings: Compound concentration 1000.0 nM
[42] = molecular target: Serine/threonine-protein kinase 32B (Homo sapiens) (UniProt Q9NY57); settings: Compound concentration 1000.0 nM
[43] = molecular target: 5-hydroxytryptamine receptor 1B (Homo sapiens) (UniProt P28222); settings: Compound concentration 10.0 uM
[44] = molecular target: 5-hydroxytryptamine receptor 2B (Homo sapiens) (UniProt P41595); settings: Compound concentration 10.0 uM
[45] = molecular target: Histamine H4 receptor (Homo sapiens) (UniProt Q9H3N8); settings: Compound concentration 10.0 uM

Tyrosine-protein kinase ABL1 (Homo sapiens), sequence (P00519 whole entry): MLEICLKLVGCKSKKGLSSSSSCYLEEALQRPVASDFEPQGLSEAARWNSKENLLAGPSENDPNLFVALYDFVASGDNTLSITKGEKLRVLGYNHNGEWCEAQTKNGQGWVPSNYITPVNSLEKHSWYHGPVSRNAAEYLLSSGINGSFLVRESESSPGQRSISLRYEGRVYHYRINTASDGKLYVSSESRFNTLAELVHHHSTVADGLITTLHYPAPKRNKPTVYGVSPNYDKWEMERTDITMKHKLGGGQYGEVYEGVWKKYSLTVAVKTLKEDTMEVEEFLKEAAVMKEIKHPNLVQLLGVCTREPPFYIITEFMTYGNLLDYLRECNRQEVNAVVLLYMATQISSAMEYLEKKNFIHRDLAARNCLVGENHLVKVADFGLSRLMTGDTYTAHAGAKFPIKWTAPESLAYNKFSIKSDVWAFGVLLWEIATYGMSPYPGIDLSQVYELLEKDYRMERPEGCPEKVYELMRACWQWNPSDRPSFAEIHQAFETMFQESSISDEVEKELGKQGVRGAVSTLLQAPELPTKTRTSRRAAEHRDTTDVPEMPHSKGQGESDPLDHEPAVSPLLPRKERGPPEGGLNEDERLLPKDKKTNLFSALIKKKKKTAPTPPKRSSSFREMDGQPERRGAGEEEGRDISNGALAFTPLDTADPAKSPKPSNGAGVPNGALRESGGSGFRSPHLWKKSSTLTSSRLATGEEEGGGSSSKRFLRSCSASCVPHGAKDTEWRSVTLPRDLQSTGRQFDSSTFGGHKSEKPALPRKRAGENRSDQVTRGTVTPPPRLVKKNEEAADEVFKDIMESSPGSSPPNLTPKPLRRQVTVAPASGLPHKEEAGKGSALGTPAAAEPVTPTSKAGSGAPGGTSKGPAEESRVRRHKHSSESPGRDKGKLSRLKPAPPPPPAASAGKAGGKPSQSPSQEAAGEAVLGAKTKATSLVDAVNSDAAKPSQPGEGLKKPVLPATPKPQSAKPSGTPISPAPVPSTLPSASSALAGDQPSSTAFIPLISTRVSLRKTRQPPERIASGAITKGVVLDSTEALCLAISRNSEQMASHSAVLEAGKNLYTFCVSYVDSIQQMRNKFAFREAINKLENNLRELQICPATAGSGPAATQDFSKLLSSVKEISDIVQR

O=c1nc(-c2ccccn2)sc2ccccc12 [BTZO-1]
inactive: residual activity [1] 93% | residual activity [2] 91% | residual activity [3] 100% | residual activity [4] 100% | residual activity [5] 75% | residual activity [6] 98% | residual activity [7] 100% | residual activity [8] 96% | residual activity [9] 100% | residual activity [10] 75% | residual activity [11] 86% | residual activity [12] 69% | residual activity [13] 100% | residual activity [14] 100% | residual activity [15] 96% | residual activity [16] 100% | residual activity [17] 100% | residual activity [18] 77% | residual activity [19] 83% | residual activity [20] 96% | residual activity [21] 80% | residual activity [22] 100% | residual activity [23] 100% | residual activity [24] 74% | residual activity [25] 61% | residual activity [26] 71% | residual activity [27] 97% | residual activity [28] 97% | residual activity [29] 92% | residual activity [30] 75% | residual activity [31] 100% | residual activity [32] 100% | residual activity [33] 100% | residual activity [34] 67% | residual activity [35] 94% | residual activity [36] 94% | residual activity [37] 85% | residual activity [38] 100% | residual activity [39] 97% | residual activity [40] 81% | residual activity [41] 100% | residual activity [42] 100% | inhibition [43] -1.9% | inhibition [44] 34.3% | inhibition [45] -0.975%

O=C1NC(c2ccccn2)Sc2ccccc21 (stereo not given) [BTZO-4]
inactive: residual activity [1] 69% | residual activity [2] 100% | residual activity [3] 84% | residual activity [4] 100% | residual activity [5] 72% | residual activity [6] 100% | residual activity [7] 90% | residual activity [8] 74% | residual activity [9] 100% | residual activity [10] 90% | residual activity [11] 100% | residual activity [12] 77% | residual activity [13] 100% | residual activity [14] 100% | residual activity [15] 90% | residual activity [16] 100% | residual activity [17] 100% | residual activity [18] 87% | residual activity [19] 88% | residual activity [20] 77% | residual activity [21] 74% | residual activity [22] 100% | residual activity [23] 94% | residual activity [24] 65% | residual activity [25] 75% | residual activity [26] 68% | residual activity [27] 88% | residual activity [28] 93% | residual activity [29] 82% | residual activity [30] 81% | residual activity [31] 94% | residual activity [32] 100% | residual activity [33] 100% | residual activity [34] 77% | residual activity [35] 93% | residual activity [36] 100% | residual activity [37] 82% | residual activity [38] 100% | residual activity [39] 96% | residual activity [40] 100% | residual activity [41] 100% | residual activity [42] 100% | inhibition [43] 12.3% | inhibition [44] -5.37% | inhibition [45] 1.89%
